The text below walks through data of patent US20250027085A1, “COMPOSITIONS AND METHODS FOR TREATING ALZHEIMER'S DISEASE UTILIZING A TRANSCRIPTIONAL MASTER REGULATOR OF THE RETROMER COMPLEX” (THE TRUSTEES OF COLUMBIA UNIVERSITY IN THE CITY OF NEW YORK, priority 2022, published 2025).

This experiment deals with CHOP. Kind of experiment: CHOP quantitative immunofluorescence in soma after axonal Aβ1-42/Aβ42. In kind it is cell-based, rat. As to conditions: axonal treatment; Aβ oligomers 36 hours, nelfinavir in the last 24 hours. How it is done:
Hippocampi were dissected from embryonic day (E) 16-18 rat embryos obtained from pregnant Sprague-Dawley dams (Envigo). All animal procedures were approved by the Institutional Animal Care and Use Committee at Columbia University. Cell dissociation was performed using TripLE Express. Neurons (50,000-60,000 per microfluidic chamber) were plated on 0.1 mg ml^-1 poly-D-lysine (Millipore Sigma) and 2 μg ml^-1 laminin (Bio-Techne) coated substrates and grown in Neurobasal supplemented with 10% fetal bovine serum, 2 mM L-glutamine, 1 mM sodium pyruvate, and antibiotics (50 U ml^-1 penicillin-streptomycin). Tripartite microfluidic chambers were produced with Dow Corning Sylgard 184 Silicone Encapsulant Clear Kit (10:1 mix ratio; Ellsworth Adhesives) cured at […] for at least 4 hours following published protocols (Park et al. 2006; Desai et al. 2009). Chamber design incorporated two sets of 200-μm-long microgroove barriers to exclude crossing of cell bodies and dendrites (Taylor et al. 2005; […] et al. 2009). After 24 hours, medium was changed to Neurobasal containing 1×B27 and 2 mM L-glutamine. Subsequent medium changes (half volumes) were performed at DIV4 and thereafter every 3-5 days. […] Mean pixel intensity values were computed after background fluorescence subtraction.

Take `Cc1c(O)cccc1C(=O)N[C@@H](CSc1ccccc1)[C@H](O)CN1C[C@H]2CCCC[C@H]2C[C@H]1C(=O)NC(C)(C)C` [nelfinavir]: the “downstream induction of CHOP expression in the soma” value is “abolished”.
